Assay results as given in patent US7422848B2, “Hepatitis-B viral variants with reduced susceptibility to nucleoside analogs and uses thereof” (priority 2005, dated 2008).
Entries after “also recorded” stand apart in the source; their conditions may differ.

What was measured:
wild type HBV = test: HBV replication in transiently transfected Huh7 cell lines (Real-time PCR), wild type HBV; conditions: supernatant at end of 5th day
HBV [1] = test: Example 3: second patient, antiviral therapy of HBV infection (HBV DNA, ALT, AST); assay type: in vivo, human; conditions: lamivudine (Zeffix) 100 mg/day; before breakthrough
Text: A person is a patient with HBsAg (+) and Anti-HBe (+).

HBV [2] = test: Published clinical studies of ADF (Perrillo 2004, Peters 2004, Angus 2003, Yang 2003); conditions: ADF added to the therapy; implied from cited studies
HBV [3] = conditions: human, in vivo; cited from earlier work
HBV [4] = test: Case study patient: antiviral therapy of chronic HBV infection (HBV DNA, ALT); assay type: in vivo, human; conditions: patient after clinical breakthrough, IFN 9 MU/TIW 6 months, Hepsera 10 mg/day 14 months
Description: HBV DNA levels were measured by using a commercial liquid-hybridization assay (Digene, Maryland, US), with the lower limit of detection of this assay being 5 pg/mL of viral DNA.
Lamuvidine was continued after the development of clinical breakthrough. […] Hepsera™ (Adefovir dipovoxil) 10 mg/day was added to lamivudine monotherapy at 44th month of initial antiviral therapy and 3 months after stopping IFN.
Blood counts and liver-function tests (alanine and aspartate aminotransferases) were done according to routine biochemical procedures (Olympus AU 2700 autoanalyzer, Japan).

[5] = 0.1 μM antiviral, 3 independent experiments
[6] = 1 μM antiviral, 3 independent experiments

Compound | HBV replication in transiently transfected Huh7 cell lines (Mean log HBV copy number ± standard deviation) (wild type HBV; [5]) [log HBV copy number] | HBV replication in transiently transfected Huh7 cell lines (Mean log HBV copy number ± standard deviation) (wild type HBV; [6]) [log HBV copy number] | HBV DNA levels following lamivudine treatment (HBV [1]) | Patients not achieving a significant reduction in HBV DNA levels (HBV [2]) | HBV replication in transiently transfected Huh7 cell lines (Mean log HBV copy number ± standard deviation) (wild type HBV; 10 μM antiviral, n.d. = not detectable) | Adefovir treated patients revealing the resistance mutation rtN236T (HBV [3]) | ALT and HBV replication response when added to ongoing lamivudine (in words) (HBV [4]) | ALT and HBV replication response when added to ongoing lamivudine (in words) (HBV [4]; listed as Hepsera™)
Nc1ccn([C@@H]2CS[C@H](CO)O2)c(=O)n1 [3TC, β-L-(−)-2′,3′-dideoxy-3′-thiacytidine] | 4.1 ± 0.8 | 2.32 ± 1.62 | less than 5 pg/mL | – | – | – | – | –
Nc1ncnc2c1ncn2CCOCP(=O)(O)O [Adefovir, 9-(2-phosphonyl-methoxyethyl)-adenine] | 1.15 ± 1.62 | 0.32 ± 0.58 | – | 8-15% | no detectable HBV DNA | 1.7-2.5% | – | –
CC(C)(C)C(=O)OCOP(=O)(COCCn1cnc2c(N)ncnc21)OCOC(=O)C(C)(C)C [adefovir dipivoxil] | – | – | – | – | – | – | neither suppressed HBV replication nor decreased serum ALT levels | neither inhibition of HBV replication nor ALT normalization occurred; also recorded: did not lead to inhibition of HBV replication and ALT normalisation
